# Experimental data as given in US20230279482A1, “COMPOSITIONS, METHODS AND USES FOR QUANTIFYING TRANSCRIPTION AND BIOSENSING OF SMALL MOLECULES USING A NOVEL TYPE VI CRISPR-CAS ASSAY” (THE REGENTS OF THE UNIVERSITY OF COLORADO, A BODY CORPORATE, priority 2020, published 2023).
# Where two headings read alike, the source gives them in different places.
# Key:
# [1] = system: SPRINT assay without riboswitch (constitutively transcribed Cas13a target); assay: SPRINT control screen with constitutive promoter template (PAINS identification); details: FIG. 9B
# Experimental: The master mix was gently mixed by pipetting up and down and incubated at 37° C. for 15 minutes to allow binding of crRNA to Cas13a protein and the microwell plate was prepared by adding 3 μL of 10× ligand to the wells. The reaction was initiated by addition of rNTPs to the master mix to a concentration of 20 μM and then 27 μL of the complete master mix were added to each well and pipetted up and down to mix with the ligand in the wells. The plate was covered with an optical adhesive film to prevent evaporation of the sample while taking fluorescence measurements in a plate reader that was preheated to 37° C.
# bacteria = details: cited from earlier work
# [2] = system: guanine riboswitch xpt/pbuE*6U; assay: SPRINT compound screen on guanine riboswitch; assay type: biochemical; details: 1 μM, FIG. 10
# Experimental: Briefly, the transcriptional response of the guanine riboswitch xpt/pbuE*6U to 30 different compounds was measured at two different concentrations each (FIG. 9A and FIG. 10). The concentrations used were 10 μM and 1 mM for most compounds. The signal that was obtained from control experiments with the solvents DMSO or water was subtracted from all values.
# guanine riboswitch = details: as low as; cited from earlier work
# tetR [3] = molecular target: T1, tetR (Escherichia coli, UniProt P04483); assay: biochemical
# Experimental: In other exemplary methods, reactions with allosteric transcription factors (aTFs), ROSALIND reagent buffer (10× buffer containing, for assays contemplated herein, but not limited to: 400 mM Tris-HCl, pH 8.0, 200 mM NaCl, 20 mM spermidine, 100 mM DTT and 80 mM MgCl2) were used. The buffer was prepared fresh or stored as single-use aliquots at −80° C. […] The final concentration of the aTF monomers was either 2.5 μM tetR or 10 μM smtB. The master mix was incubated for 15 minutes at 37° C. which allows the aTFs to bind to the operator sequence.
# In another exemplary method, bacterial transcription can be regulated by allosteric transcription factors (aTFs), such as activators or repressors, which have previously been used for small molecule detection. Another system (“ROSALIND”) enabled rapid detection of compounds via aTFs. […] The ROSALIND buffer system differs from the SPRINT or SHERLOCK buffer. Therefore, it was tested whether aTF-based ROSALIND reactions could be integrated with the Cas13a-based detection method. To simplify the system, the inorganic pyrophosphatase (IPPase) enzyme was first removed from the ROSALIND system. IPPase was used in transcription reactions to degrade pyrophosphate which was a reaction product of the RNA polymerase and can inhibit the reaction. […] Adaptions included reducing the concentrations of rNTP from 2.85 mM to 40 μM, DNA template from 25 to 15 nM, and T7 RNAP from 10 to 6.7 ng/μL.
# The responses of the de-repressors tetR and smtB were measured with SPRINT.
# tetR [4] = molecular target: T1, tetR; details: read-out: previously reported range; cited from earlier work
# bacterial RNAP [5] = molecular target: T2, bacterial RNAP (Escherichia coli, UniProt P0A8V2); details: cited from earlier work
# bacterial RNAP [6] = molecular target: T2, bacterial RNAP; assay: SPRINT rifampicin titration with constitutive promoter; assay type: biochemical, E. coli
# Target sequence in this assay (P0A8V2 whole entry): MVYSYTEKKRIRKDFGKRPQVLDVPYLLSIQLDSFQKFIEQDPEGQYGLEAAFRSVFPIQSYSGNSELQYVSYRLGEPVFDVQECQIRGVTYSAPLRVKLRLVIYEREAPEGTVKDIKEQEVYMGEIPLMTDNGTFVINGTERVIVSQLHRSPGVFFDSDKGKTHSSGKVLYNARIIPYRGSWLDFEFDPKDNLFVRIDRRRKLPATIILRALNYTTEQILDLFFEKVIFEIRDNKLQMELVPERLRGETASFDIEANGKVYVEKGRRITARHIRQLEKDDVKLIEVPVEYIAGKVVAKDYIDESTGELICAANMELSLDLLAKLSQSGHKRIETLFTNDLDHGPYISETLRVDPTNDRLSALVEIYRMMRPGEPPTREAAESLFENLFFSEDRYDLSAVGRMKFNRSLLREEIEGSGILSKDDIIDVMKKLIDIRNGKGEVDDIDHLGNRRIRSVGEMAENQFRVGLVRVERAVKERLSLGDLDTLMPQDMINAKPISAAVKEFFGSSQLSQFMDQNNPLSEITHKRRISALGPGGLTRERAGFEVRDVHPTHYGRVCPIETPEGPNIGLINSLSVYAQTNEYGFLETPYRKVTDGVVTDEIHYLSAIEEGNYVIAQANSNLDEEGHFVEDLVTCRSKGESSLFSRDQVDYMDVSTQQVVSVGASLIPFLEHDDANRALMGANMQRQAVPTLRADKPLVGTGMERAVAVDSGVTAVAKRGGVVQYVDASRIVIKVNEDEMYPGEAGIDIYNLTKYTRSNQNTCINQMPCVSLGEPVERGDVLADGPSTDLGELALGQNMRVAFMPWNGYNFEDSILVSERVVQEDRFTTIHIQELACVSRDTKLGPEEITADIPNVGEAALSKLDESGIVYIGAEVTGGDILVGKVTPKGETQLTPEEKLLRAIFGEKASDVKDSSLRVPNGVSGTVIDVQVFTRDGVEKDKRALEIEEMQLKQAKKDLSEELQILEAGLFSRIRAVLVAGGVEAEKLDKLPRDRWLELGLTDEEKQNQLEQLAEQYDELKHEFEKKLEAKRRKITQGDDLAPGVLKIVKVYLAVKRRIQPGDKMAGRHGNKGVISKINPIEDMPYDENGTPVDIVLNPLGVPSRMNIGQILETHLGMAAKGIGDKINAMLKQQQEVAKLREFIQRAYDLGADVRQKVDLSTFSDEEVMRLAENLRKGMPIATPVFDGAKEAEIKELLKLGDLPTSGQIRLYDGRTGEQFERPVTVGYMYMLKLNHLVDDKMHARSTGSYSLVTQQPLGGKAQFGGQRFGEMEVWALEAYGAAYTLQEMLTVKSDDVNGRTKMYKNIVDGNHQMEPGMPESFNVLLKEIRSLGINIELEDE
# Target sequence in this assay (P0A8T7 whole entry partner): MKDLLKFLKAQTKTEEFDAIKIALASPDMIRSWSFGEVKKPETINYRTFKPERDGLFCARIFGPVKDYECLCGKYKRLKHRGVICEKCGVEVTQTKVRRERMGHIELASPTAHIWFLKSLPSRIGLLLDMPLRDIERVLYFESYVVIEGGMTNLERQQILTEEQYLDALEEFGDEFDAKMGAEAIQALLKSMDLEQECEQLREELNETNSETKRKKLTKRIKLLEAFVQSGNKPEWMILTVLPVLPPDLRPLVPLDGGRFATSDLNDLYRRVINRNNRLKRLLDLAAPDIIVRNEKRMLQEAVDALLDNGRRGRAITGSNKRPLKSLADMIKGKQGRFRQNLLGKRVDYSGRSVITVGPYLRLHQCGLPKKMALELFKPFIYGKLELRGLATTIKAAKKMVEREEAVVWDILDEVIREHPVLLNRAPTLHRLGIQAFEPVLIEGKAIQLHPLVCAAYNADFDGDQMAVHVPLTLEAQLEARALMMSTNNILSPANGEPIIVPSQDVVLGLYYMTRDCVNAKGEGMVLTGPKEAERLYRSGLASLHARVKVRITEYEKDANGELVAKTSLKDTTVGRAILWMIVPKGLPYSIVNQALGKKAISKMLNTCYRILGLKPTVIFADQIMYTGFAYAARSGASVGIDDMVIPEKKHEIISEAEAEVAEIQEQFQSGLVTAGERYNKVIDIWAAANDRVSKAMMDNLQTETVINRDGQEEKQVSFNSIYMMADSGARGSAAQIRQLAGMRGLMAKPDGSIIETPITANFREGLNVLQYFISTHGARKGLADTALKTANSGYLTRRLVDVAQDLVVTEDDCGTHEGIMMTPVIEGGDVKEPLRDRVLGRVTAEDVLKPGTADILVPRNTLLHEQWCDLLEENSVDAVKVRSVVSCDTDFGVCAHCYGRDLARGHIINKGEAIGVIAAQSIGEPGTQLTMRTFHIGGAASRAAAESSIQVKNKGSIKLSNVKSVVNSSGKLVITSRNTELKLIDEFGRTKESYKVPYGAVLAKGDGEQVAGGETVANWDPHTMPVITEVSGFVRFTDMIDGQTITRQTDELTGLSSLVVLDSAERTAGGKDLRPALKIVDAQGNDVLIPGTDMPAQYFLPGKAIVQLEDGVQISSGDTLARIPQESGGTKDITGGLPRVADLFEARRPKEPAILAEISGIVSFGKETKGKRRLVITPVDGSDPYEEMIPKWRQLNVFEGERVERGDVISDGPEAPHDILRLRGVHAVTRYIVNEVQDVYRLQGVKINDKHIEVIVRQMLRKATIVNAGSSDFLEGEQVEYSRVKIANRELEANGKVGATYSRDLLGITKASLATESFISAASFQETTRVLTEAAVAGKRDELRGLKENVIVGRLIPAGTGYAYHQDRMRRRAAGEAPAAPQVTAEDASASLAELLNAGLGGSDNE
# Target sequence in this assay (P0A7Z4 whole entry partner): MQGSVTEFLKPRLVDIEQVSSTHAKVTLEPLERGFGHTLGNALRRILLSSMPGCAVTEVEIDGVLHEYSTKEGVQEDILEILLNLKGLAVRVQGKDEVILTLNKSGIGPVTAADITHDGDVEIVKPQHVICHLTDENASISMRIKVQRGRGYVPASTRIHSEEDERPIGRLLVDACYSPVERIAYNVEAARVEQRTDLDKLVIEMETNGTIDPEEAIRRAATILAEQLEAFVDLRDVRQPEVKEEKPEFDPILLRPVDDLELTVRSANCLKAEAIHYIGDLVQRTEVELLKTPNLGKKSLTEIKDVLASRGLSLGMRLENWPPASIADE
# Target sequence in this assay (P0A800 whole entry partner): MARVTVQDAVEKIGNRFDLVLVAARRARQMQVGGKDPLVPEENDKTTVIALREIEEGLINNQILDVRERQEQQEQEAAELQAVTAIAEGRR
# Target sequence in this assay (P00579 whole entry partner): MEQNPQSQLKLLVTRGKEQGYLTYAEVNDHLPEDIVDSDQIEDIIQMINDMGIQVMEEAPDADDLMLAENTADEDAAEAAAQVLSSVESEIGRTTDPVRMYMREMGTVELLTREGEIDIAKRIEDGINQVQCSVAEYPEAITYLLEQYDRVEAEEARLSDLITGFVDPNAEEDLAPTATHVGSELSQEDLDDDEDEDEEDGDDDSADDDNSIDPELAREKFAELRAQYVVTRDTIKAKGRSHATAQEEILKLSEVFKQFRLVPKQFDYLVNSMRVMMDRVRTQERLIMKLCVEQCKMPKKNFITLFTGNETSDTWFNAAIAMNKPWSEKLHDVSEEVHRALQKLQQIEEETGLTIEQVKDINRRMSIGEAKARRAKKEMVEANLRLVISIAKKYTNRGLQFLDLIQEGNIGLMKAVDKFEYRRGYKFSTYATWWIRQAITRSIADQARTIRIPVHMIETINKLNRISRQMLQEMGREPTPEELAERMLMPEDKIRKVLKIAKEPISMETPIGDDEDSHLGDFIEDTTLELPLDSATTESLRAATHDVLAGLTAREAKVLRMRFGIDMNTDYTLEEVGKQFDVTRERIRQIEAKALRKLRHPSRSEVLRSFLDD
# T1 sequence (P04483 whole entry): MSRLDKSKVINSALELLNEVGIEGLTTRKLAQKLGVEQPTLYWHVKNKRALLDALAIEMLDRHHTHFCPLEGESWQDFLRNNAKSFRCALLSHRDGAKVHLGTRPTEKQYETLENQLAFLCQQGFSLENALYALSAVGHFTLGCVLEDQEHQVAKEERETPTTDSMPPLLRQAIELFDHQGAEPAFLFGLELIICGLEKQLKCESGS
smiles,measurement,setting,value
"Nc1nc(N)c(N)c(=O)[nH]1 [2,5,6-TAP]",effect on enzymatic activity of the SPRINT assay at high concentration,"[1]; 100 μM, FIG. 10",completely shut down enzymatic activity
same,interference with SPRINT assay (PAINS),[1]; constitutive promoter template,interfering compounds
same,concentration with bactericidal properties,bacteria,8 mM
same,transcriptional activation at low concentration,[2],only slightly activated transcription
same,concentration at which it binds the guanine riboswitch,guanine riboswitch,≥ 100 nM
Cc1c2c(c(O)c3c(O)cccc13)C(=O)[C@]1(O)C(=O)C(C(N)=O)=C(O)[C@@H](N(C)C)[C@@H]1C2 [anhydrotetracycline],EC50,tetR [3],1.9 ± 0.2 µM
same,EC50,tetR [4],1 to 2.5 µM
CO[C@H]1/C=C/O[C@@]2(C)Oc3c(C)c(O)c4c(O)c(c(/C=N/N5CCN(C)CC5)c(O)c4c3C2=O)NC(=O)/C(C)=C\C=C\[C@H](C)[C@H](O)[C@@H](C)[C@@H](O)[C@@H](C)[C@H](OC(C)=O)[C@@H]1C [rifampicin],Kd,bacterial RNAP [5],0.003 µM
same,IC50,bacterial RNAP [6],0.0059 ± 0.0006 µM
